From ChEMBL document CHEMBL3885881, “DrugMatrix”

Species: Rattus norvegicus
Experiment: DrugMatrix - Regimen: Daily Repeat
Type: toxicity, organism-based, Sprague-Dawley
Design: regimen Daily Repeat, gender Male, age 6-8 weeks
Settings: in vivo, po, route oral GAVAGE, vehicle 100 % WATER; for CREATININE / GLUCOSE / LACTATE DEHYDROGENASE / LIPASE / PHOSPHORUS / POTASSIUM / SODIUM / TOTAL BILIRUBIN / TOTAL PROTEIN / URIC ACID / ALANINE AMINOTRANSFERASE / ALBUMIN / ALKALINE PHOSPHATASE / ASPARTATE AMINOTRANSFERASE / BLOOD UREA NITROGEN / CARBON DIOXIDE / CHLORIDE / CHOLESTEROL / CREATINE PHOSPHOKINASE: tissue Plasma; for ABSOLUTE BASOPHIL / ABSOLUTE EOSINOPHIL / ABSOLUTE LYMPHOCYTE / ABSOLUTE MONOCYTE / ABSOLUTE SEGMENTED NEUTROPHIL / BASOPHIL / EOSINOPHIL / ERYTHROCYTE COUNT / HEMATOCRIT / HEMOGLOBIN / LEUKOCYTE COUNT / LYMPHOCYTE / MEAN CORPUSCULAR HEMOGLOBIN / MEAN CORPUSCULAR HEMOGLOBIN CONCENTRATION / MEAN CORPUSCULAR VOLUME / MONOCYTE / NEUTROPHIL / NUCLEATED RED BLOOD CELLS / PLATELET COUNT: tissue Blood
[1] = 25 mg/kg, 120 h, dose level Low, time 5 day
[2] = 54 mg/kg, 72 h, dose level High, time 3 day
[3] = 54 mg/kg, 120 h, dose level High, time 5 day
[4] = 80 mg/kg, 72 h, dose level High, time 3 day
[5] = 80 mg/kg, 120 h, dose level High, time 5 day

Structure (SMILES): CCC1(c2ccccc2)C(=O)NC(=O)NC1=O [PHENOBARBITAL]
- CREATININE [1]: 0.15 mg/dL
- GLUCOSE [1]: 135.67 mg/dL
- LACTATE DEHYDROGENASE [1]: 131 u/L
- LIPASE [1]: 9.33 u/L
- PHOSPHORUS [1]: 11 mg/dL
- POTASSIUM [1]: 6.37 MEQ/L
- SODIUM [1]: 145.53 MEQ/L
- TOTAL BILIRUBIN [1]: 0.17 mg/dL
- TOTAL PROTEIN [1]: 6.23 G/DL
- URIC ACID [1]: 0.7 mg/dL
- ABSOLUTE BASOPHIL [2]: 0 CELLS/uL
- ABSOLUTE EOSINOPHIL [2]: 0 CELLS/uL
- ABSOLUTE LYMPHOCYTE [2]: 6613.67 CELLS/uL
- ABSOLUTE MONOCYTE [2]: 76.67 CELLS/uL
- ABSOLUTE SEGMENTED NEUTROPHIL [2]: 1009.67 CELLS/uL
- BASOPHIL [2]: 0%
- EOSINOPHIL [2]: 0%
- ERYTHROCYTE COUNT [2]: 5.6 x10E6/uL
- HEMATOCRIT [2]: 34.33%
- HEMOGLOBIN [2]: 13.17 G/DL
- LEUKOCYTE COUNT [2]: 7.7 x10E3/uL
- LYMPHOCYTE [2]: 86%
- MEAN CORPUSCULAR HEMOGLOBIN [2]: 23.53 pg
- MEAN CORPUSCULAR HEMOGLOBIN CONCENTRATION [2]: 38.37 G/DL
- MEAN CORPUSCULAR VOLUME [2]: 61.37 fL
- MONOCYTE [2]: 1%
- NEUTROPHIL [2]: 13%
- NUCLEATED RED BLOOD CELLS [2]: 0 /100WBC
- PLATELET COUNT [2]: 1130.67 x10E3/uL
- ALANINE AMINOTRANSFERASE [2]: 66.33 u/L
- ALBUMIN [2]: 3.9 G/DL
- ALKALINE PHOSPHATASE [2]: 296.33 u/L
- ASPARTATE AMINOTRANSFERASE [2]: 99.33 u/L
- BLOOD UREA NITROGEN [2]: 16.33 mg/dL
- CARBON DIOXIDE [2]: 35.67 mmol/L
- CHLORIDE [2]: 98.5 MEQ/L
- CHOLESTEROL [2]: 85.67 mg/dL
- CREATINE PHOSPHOKINASE [2]: 643 u/L
- CREATININE [2]: 0.14 mg/dL
- GLUCOSE [2]: 132.33 mg/dL
- LACTATE DEHYDROGENASE [2]: 152.67 u/L
- LIPASE [2]: 11 u/L
- PHOSPHORUS [2]: 10.93 mg/dL
- POTASSIUM [2]: 5.81 MEQ/L
- SODIUM [2]: 144.8 MEQ/L
- TOTAL BILIRUBIN [2]: 0.2 mg/dL
- TOTAL PROTEIN [2]: 5.87 G/DL
- URIC ACID [2]: 0.63 mg/dL
- ABSOLUTE BASOPHIL [3]: 0 CELLS/uL
- ABSOLUTE EOSINOPHIL [3]: 0 CELLS/uL
- ABSOLUTE LYMPHOCYTE [3]: 8394.67 CELLS/uL
- ABSOLUTE MONOCYTE [3]: 27.33 CELLS/uL
- ABSOLUTE SEGMENTED NEUTROPHIL [3]: 1011.33 CELLS/uL
- BASOPHIL [3]: 0%
- EOSINOPHIL [3]: 0%
- ERYTHROCYTE COUNT [3]: 5.14 x10E6/uL
- HEMATOCRIT [3]: 32.97%
- HEMOGLOBIN [3]: 12.8 G/DL
- LEUKOCYTE COUNT [3]: 9.43 x10E3/uL
- LYMPHOCYTE [3]: 89.33%
- MEAN CORPUSCULAR HEMOGLOBIN [3]: 24.87 pg
- MEAN CORPUSCULAR HEMOGLOBIN CONCENTRATION [3]: 38.83 G/DL
- MEAN CORPUSCULAR VOLUME [3]: 64.1 fL
- MONOCYTE [3]: 0.33%
- NEUTROPHIL [3]: 10.33%
- NUCLEATED RED BLOOD CELLS [3]: 0 /100WBC
- PLATELET COUNT [3]: 1251 x10E3/uL
- ALANINE AMINOTRANSFERASE [3]: 51 u/L
- ALBUMIN [3]: 4.2 G/DL
- ALKALINE PHOSPHATASE [3]: 333.33 u/L
- ASPARTATE AMINOTRANSFERASE [3]: 88.33 u/L
- BLOOD UREA NITROGEN [3]: 18.33 mg/dL
- CARBON DIOXIDE [3]: 32.67 mmol/L
- CHLORIDE [3]: 100.67 MEQ/L
- CHOLESTEROL [3]: 84 mg/dL
- CREATINE PHOSPHOKINASE [3]: 245.33 u/L
- CREATININE [3]: 0.16 mg/dL
- GLUCOSE [3]: 134.67 mg/dL
- LACTATE DEHYDROGENASE [3]: 129.33 u/L
- LIPASE [3]: 9.67 u/L
- PHOSPHORUS [3]: 10.53 mg/dL
- POTASSIUM [3]: 6.17 MEQ/L
- SODIUM [3]: 145.07 MEQ/L
- TOTAL BILIRUBIN [3]: 0.2 mg/dL
- TOTAL PROTEIN [3]: 6.4 G/DL
- URIC ACID [3]: 0.8 mg/dL
- BASOPHIL [4]: 0.45%
- EOSINOPHIL [4]: 0.45%
- ERYTHROCYTE COUNT [4]: 7.21 x10E6/uL
- HEMATOCRIT [4]: 44%
- HEMOGLOBIN [4]: 13.8 G/DL
- LEUKOCYTE COUNT [4]: 13.79 x10E3/uL
- LYMPHOCYTE [4]: 79.7%
- MEAN CORPUSCULAR HEMOGLOBIN [4]: 19.15 pg
- MEAN CORPUSCULAR HEMOGLOBIN CONCENTRATION [4]: 31.35 G/DL
- MEAN CORPUSCULAR VOLUME [4]: 61.05 fL
- MONOCYTE [4]: 2.35%
- NEUTROPHIL [4]: 15.8%
- PLATELET COUNT [4]: 1419.5 x10E3/uL
- ALANINE AMINOTRANSFERASE [4]: 37.33 u/L
- ALBUMIN [4]: 3.43 G/DL
- ALKALINE PHOSPHATASE [4]: 281 u/L
- ASPARTATE AMINOTRANSFERASE [4]: 57 u/L
- BLOOD UREA NITROGEN [4]: 12.33 mg/dL
- CHLORIDE [4]: 103 MEQ/L
- CHOLESTEROL [4]: 84.33 mg/dL
- CREATINE PHOSPHOKINASE [4]: 205.33 u/L
- CREATININE [4]: 0.37 mg/dL
- GLUCOSE [4]: 185 mg/dL
- PHOSPHORUS [4]: 13.43 mg/dL
- POTASSIUM [4]: 6.63 MEQ/L
- SODIUM [4]: 147 MEQ/L
- TOTAL BILIRUBIN [4]: 0.43 mg/dL
- TOTAL PROTEIN [4]: 5.8 G/DL
- BASOPHIL [5]: 0.43%
- EOSINOPHIL [5]: 0.4%
- ERYTHROCYTE COUNT [5]: 6.51 x10E6/uL
- HEMATOCRIT [5]: 40.63%
- HEMOGLOBIN [5]: 13.03 G/DL
- LEUKOCYTE COUNT [5]: 13 x10E3/uL
- LYMPHOCYTE [5]: 81.9%
- MEAN CORPUSCULAR HEMOGLOBIN [5]: 20.1 pg
- MEAN CORPUSCULAR HEMOGLOBIN CONCENTRATION [5]: 32.13 G/DL
- MEAN CORPUSCULAR VOLUME [5]: 62.43 fL
- MONOCYTE [5]: 2.6%
- NEUTROPHIL [5]: 13.63%
- PLATELET COUNT [5]: 1415.67 x10E3/uL
- ALANINE AMINOTRANSFERASE [5]: 40.33 u/L
- ALBUMIN [5]: 3.43 G/DL
- ALKALINE PHOSPHATASE [5]: 257 u/L
- ASPARTATE AMINOTRANSFERASE [5]: 54 u/L
- BLOOD UREA NITROGEN [5]: 12 mg/dL
- CHLORIDE [5]: 103.67 MEQ/L
- CHOLESTEROL [5]: 104 mg/dL
- CREATINE PHOSPHOKINASE [5]: 162.67 u/L
- CREATININE [5]: 0.37 mg/dL
- GLUCOSE [5]: 183.67 mg/dL
- PHOSPHORUS [5]: 12.7 mg/dL
- POTASSIUM [5]: 6.67 MEQ/L
- SODIUM [5]: 145.67 MEQ/L
- TOTAL BILIRUBIN [5]: 0.33 mg/dL
- TOTAL PROTEIN [5]: 5.87 G/DL
